Reference: ChEMBL document CHEMBL1158925, “New proazulene guaianolides from Thapsia villosa” (J Nat Prod, 1990)
The source made the active and inactive calls. The rule behind the calls is not given here.

Key:
Mast cell = experiment: Induction of histamine release in rat peritoneal mast cells at 10 uM; assay type: functional, cell-based
[1] = Skin irritant activity in mouse ear at 10 ug after 24 hrs; assay type: ADME, tissue-based; details: in vivo, topical_or_ocular

CCC(C)C(=O)O[C@H]1C[C@](C)(OC(C)=O)[C@@H]2[C@@H](C(C)=C[C@H]2O)[C@@H]2OC(=O)[C@@](C)(OC(C)=O)[C@@H]21 (stereo not given in full)
Activity (Mast cell): inactive | Activity [1]: Non-toxic

CC(=O)O[C@@H]1C=C(C)[C@H]2[C@@H]3OC(=O)[C@@](C)(OC(C)=O)[C@@H]3[C@@H](OC(=O)C=C(C)C)C[C@](C)(OC(C)=O)[C@H]21
Activity (Mast cell): inactive | Activity [1]: Non-toxic

CC(=O)O[C@@]1(C)C[C@H](OC(=O)C=C(C)C)[C@@H]2[C@@H](OC(=O)[C@@]2(C)OC(C)=O)[C@@H]2C(C)=C[C@@H](O)[C@@H]21
Activity (Mast cell): inactive | Activity [1]: Non-toxic

C/C=C(/C)C(=O)O[C@H]1C(C)=C2[C@H]([C@@H]1OC(=O)CCCCCCC)[C@@](C)(OC(C)=O)C[C@H](OC(=O)CCC)[C@@]1(O)[C@H]2OC(=O)[C@@]1(C)O [THAPSIGARGIN]
Activity (Mast cell): inactive | Activity [1]: Non-toxic

CCC(C)C(=O)O[C@H]1C[C@](C)(OC(C)=O)[C@@H]2[C@@H](C(C)=C[C@H]2OC(C)=O)[C@@H]2OC(=O)[C@@](C)(OC(C)=O)[C@@H]21 (stereo not given in full)
Activity (Mast cell): inactive | Activity [1]: Non-toxic
